Structures can show the parent of a compound that is named as a salt.
Molecular target: human recombinant 5-HT2A receptor (Homo sapiens (Human), UniProt P28223)
Assay: Determination of Ki value at 5-HT2A receptor ([3H]-Ketanserine radioligand binding)
Protocol: Determination of Ki Value at 5-HT2A Receptor
Compound was tested according to the following procedures.
Receptor source: Recombinant mammalian cells
Radioligand: [^3H]-Ketanserine (47.3 Ci/mmol)
Final ligand concentration—[1.75 nM]
Non-Specific Ligand: 0.1 mM 1-Naphthylpiperazine (1-NP)
Reference compound: 1-Naphthylpiperazine (1-NP)
Positive control: 1-Naphthylpiperazine (1-NP)
Incubation conditions: Reactions were carried out in 67 mM Tris-HCl (pH 7.4) for 1 hour at 37° C. The reaction was terminated by rapid vacuum filtration onto the glass fiber filters. Radioactivity trapped onto the filters was determined and compared to the control values in order to ascertain any interactions of the test compound(s) with the cloned serotonin 5-HT2A binding site. Reference: Methods in Molecular Biology, 2002, 190, 31-49 Results:
. The Ki values tabulated below are average of three independent experiments.

Question: COc1ccc2c(c1)c(CN1CCN(C)CC1)cn2S(=O)(=O)c1ccc(F)cc1 [Compound 2, 1-[(4-Fluorophenyl)sulfonyl]-5-methoxy-3-[(4-methyl-1-piperazinyl)methyl]-1H-indole dihydrochloride] was tested. Which Ki did it give?
Answer: > 10 µM

From patent US11253514B2, “Triple combination of pure 5-HT6 receptor antagonists, acetylcholinesterase inhibitors and NMDA receptor antagonist” (priority 2016, dated 2022)
